Here are results for 31 compounds from patent publication US20170119034A1, “COMPOSITIONS AND METHODS FOR MODIFYING PERCEPTION OF SWEET TASTE” (University of Florida Research Foundation, Inc., priority 2012, published 2017).

What all share (assay type): in vivo, human
For experiment [1], the system named is tomato flavor intensity (consumer panel). The experiment is described as follows: Tomato consumer taste panel: overall tomato flavor intensity (gLMS) versus fruit chemical content. The conditions noted are these: for association with flavor intensity: univariate models; for association with tomato flavor intensity: volatiles with high odor unit values. The procedure:
(§1) Sensory analysis. Fully ripe fruit were harvested, and used for taste panels. A random subset of fruit was used for biochemical analysis. Three biological replicates, each consisting of 2-20 fruit (depending on fruit size), were assayed for each variety. […] Panelists were between the ages of 18 and 78 with a median age of 22. […] An average of 85 (range of 66-95) of these panelists evaluated between 4-6 varieties in a session. All panelists went through a training session to familiarize them with the scaling and procedures. Tomatoes were sliced into wedges (or in halves for grape/cherry types) and each panelist was given two pieces for evaluation. Panelists took a bite of each sample, chewed and swallowed it, and rated overall liking and liking for texture. They then rated the perceived intensities of sweetness, sourness, saltiness, umami sensation, bitterness and overall tomato flavor. They were free to take as many bites as necessary to complete the assessments. They were instructed to take a bite of an unsalted cracker and a sip of water between samples. Samples were presented to the panelists in a randomized order. Hedonic ratings used the hedonic gLMS. This scale assesses the liking for tomatoes in the context of all pleasure/displeasure experiences: 0=neutral, −100=strongest disliking of any kind experienced, and +100=strongest liking of any kind experienced. Sensory intensity ratings used the gLMS (7, 8, 19).This scale assesses taste and flavor sensations in the context of all sensory experience (7): 0=no sensation, 100=strongest sensation of any kind experienced. Both scales were devised to provide valid comparisons across subjects.
(§2) Statistical analysis. The 68 chemical compounds measured in this experiment were divided into six groups based upon biochemical properties: sugars, branched chain amino acids, lipids, carotenoids, phenolics, and acids. A small number of compounds for which biosynthetic pathways are not established were assigned to one of the six classes based upon their correlations with other classified compounds. All pairwise correlations among the set of 68 compounds were calculated. Correlation coefficients were sorted using Modulated Modularity Clustering (MMC) (9) as a visual aid for identifying compounds that are closely related in this sample (FIG. 1; Table 4). Biochemical groups were examined for compounds within the group that were highly correlated and compounds that were upstream in the relevant metabolic pathways were preferentially selected.
(§3) All analyses were performed in SAS v 9.2.

Experiment [2] deals with strawberry flavor intensity (consumer panel). The experiment is described as follows: Strawberry consumer panel: bivariate fit to strawberry flavor intensity. The conditions noted are these: for Parameter Estimates: Estimate: bivariate linear fit, X = content of the substance in strawberry fruit, Y = Flavor Intensity (FI). The procedure:
(§4) All consumer panels were approved by the University of Florida Institutional Review Board. […] Ages of panelist ranged from 18 to 71, with a median age of 24. Panelists self-classified themselves as 98 White or Caucasian, 11 Black or African-American, 1 Native American, Alaska Native or Aleutian, 41 Asian/Pacific Islander, and 15 Other. […] Fresh, fully-ripe strawberry fruit was removed from overnight 4° C. dark storage and allowed to warm to room temperature prior to sensory analysis. Each panelist was given one to two whole strawberries for evaluation, depending on cultivar availability. Panelist took a bite of each sample, chewed, and swallowed it. Ratings for overall liking and liking for texture were scaled on hedonic general labeled magnitude scale (gLMS) in the context of all pleasure/displeasure experiences. […] Scales were employed to mediate valid comparisons across subjects and sessions.
(§5) Bivariate analysis among individual measurements of samples allowed for linear fit, which includes summary of fit, analysis of variance, t-test, and correlation analysis for density ellipse. Two-way Ward hierarchical cluster analysis of all metabolite concentrations and strawberry samples accomplished in JMP.

Experiment [3] concerns perceived sweetness intensity of strawberry fruit (consumer panel). The experiment is described as follows: Strawberry consumer panel: multiple regression of volatile concentration against perceived sweetness intensity independent of glucose, fructose or sucrose. The note with it: for FRUCTOSE t RATIO: volatile concentration regressed against perceived sweetness intensity independent of fructose; for GLUCOSE t RATIO: volatile concentration regressed against perceived sweetness intensity independent of glucose; for SUCROSE t RATIO: volatile concentration regressed against perceived sweetness intensity independent of sucrose; for enhancement of perceived intensity of sweetness independent of sugars: in words. On the procedure:
Step-wise multiple regressions of all volatile compounds against perceived intensity of sweetness is performed independent of either glucose, fructose, or sucrose concentration, separately (Table 6).
as §4
Multiple regressions were performed with the “enter” method in SPSS for identification of sweetness enhancing volatiles. Individual volatile compound concentrations were regressed using the “enter” method in SPSS Statistics (IBM Corp, Armonk, N.Y., USA).

Experiment [4] relates to texture liking of strawberry fruit (consumer panel). The experiment is described as follows: Strawberry consumer panel: bivariate fit to texture liking. The conditions noted are these: bivariate linear fit; X = content of the substance in strawberry fruit, Y = Texture liking. The procedure:
as §4, §5

Experiment [5] deals with perceived sweetness of tomato fruit (consumer panel). Description: Tomato consumer taste panel: perceived sweetness (gLMS) regressed on fruit chemical content. The note with it: for t: multiple regression of volatile against perceived sweetness of tomato, independent of the measures of sugar; for association with sweetness: tomato, univariate models. On the procedure: as §1, §2, §3
In conducting the multiple regression analysis on the tomato data set, the independent variables were the sugar content (glucose+fructose), and the flavor (indicated by the retronasal perception of volatiles), while the dependent variable was the perceived sweetness.

For the compound `c1ccc2scnc2c1` [benzothiazole], the “association with flavor intensity” value in experiment [1] is “associated with flavor intensity in univariate models”.
In the case of `CCCCCCO` [111-27-3], the “Parameter Estimates: Estimate” value in experiment [2] is reported as −0.001886. Further, in experiment [3], the “FRUCTOSE t RATIO” value is −1.253, the “GLUCOSE t RATIO” value is listed as −1.481 and the “SUCROSE t RATIO” value is −0.542. The “Parameter Estimates-fit to Texture Liking: Estimate” value (shortened to “Parameter Estimates-fit”) in experiment [4] is −0.01204.
Compound `CCCCCCCCC=O` [nonyl aldehyde] came in with a t in experiment [5] of 1.148.
On to `O=C(O)CC(O)(CC(=O)O)C(=O)O` [citric acid], for which, in experiment [1], the “association with flavor intensity after accounting for fructose” value (“association … for fructose” below) is “independently significant after accounting for fructose” and the “association with flavor intensity” value was “associated with flavor intensity in univariate models”.
Consider `CC/C=C\CO` [1576-95-0], for which the “Parameter Estimates: Estimate” value in experiment [2] is listed as −0.006042. Further, in experiment [3], the “FRUCTOSE t RATIO” value is given as −0.186, the “GLUCOSE t RATIO” value is recorded as −0.231 and the “SUCROSE t RATIO” value is on record as −0.304. In experiment [4], the “Parameter Estimates-fit” value is 0.1369.
For `C=CC(=O)CCCCC` [1-octen-3-one], in experiment [1], the “association … for fructose” value is given as “independently significant after accounting for fructose” and the “association with flavor intensity” value is listed as “associated with flavor intensity in univariate models”.
With `CCCCCC(=O)OC` [106-70-7], the “Parameter Estimates: Estimate” value in experiment [2] is 0.002291. In experiment [3], the “FRUCTOSE t RATIO” value is −0.321, the “GLUCOSE t RATIO” value is given as −0.531 and the “SUCROSE t RATIO” value was determined as 0.802. Further, the “Parameter Estimates-fit” value in experiment [4] is given as −0.002647.
Turning to `CCCCCCCC(C)=O` [821-55-6], in experiment [2], the “Parameter Estimates: Estimate” value is on record as 0.06252. Also, in experiment [3], the “FRUCTOSE t RATIO” value is given as −0.267, the “GLUCOSE t RATIO” value is listed as −0.467 and the “SUCROSE t RATIO” value is reported as 1.192. Also, the “Parameter Estimates-fit” value in experiment [4] was 0.09508.
With `CCC(C)OC(C)=O` (stereo not shown) [sec-butyl acetate], in experiment [1] (listed as 2-butylacetate), the “association … for fructose” value is reported as “independently significant after accounting for fructose”.
With `CCCCOC(=O)CC(C)C` [109-19-3, butyl 3-methylbutanoate], the “enhancement of perceived intensity of sweetness independent of sugars” value (“enhancement” below) in experiment [3] is “show evidence of enhancing perceived sweetness intensity independent of individual sugars”.
Regarding `CCCCCOC(=O)CCC` [540-18-1, pentyl butyrate], in experiment [3], the “enhancement” value was “mutually independent of all three sugar”.
On to `C/C=C/C(=O)C1=C(C)C=CCC1(C)C` [β-damascenone], for which the “association with tomato flavor intensity” value in experiment [1] is “not associated with tomato flavor intensity”.
Take `CCCCCCC=O` [111-71-7, heptanal]: in experiment [3], the “enhancement” value is reported as “show evidence of enhancing perceived sweetness intensity independent of individual sugars”.
In the case of `CCCCOC(C)=O` [123-86-4, butyl acetate], the “association with flavor intensity” value in experiment [1] is recorded as “associated with flavor intensity in univariate models”. In experiment [5], the association with sweetness entry was “showed evidence for association with sweetness in univariate models”.
Consider `CCCCCCOC(=O)CCC` [2639-63-6, hexyl butyrate], for which the “enhancement” value in experiment [3] is on record as “mutually independent of all three sugar”.
Consider `COC(=O)CC(C)C` [556-24-1], for which the “Parameter Estimates: Estimate” value in experiment [2] was 0.009438. In experiment [3], the “FRUCTOSE t RATIO” value was 0.732, the “GLUCOSE t RATIO” value was found to be 0.88 and the “SUCROSE t RATIO” value is given as 0.972. Moreover, in experiment [4], the “Parameter Estimates-fit” value is −0.03139.
For the compound `CCCCC(=O)OCC` [539-82-2, ethyl valerate], the “enhancement” value in experiment [3] is recorded as “show evidence of enhancing perceived sweetness intensity independent of individual sugars”.
On to `COc1ccccc1O` [guaiacol], for which, in experiment [5], the association with sweetness entry is “showed evidence for association with sweetness in univariate models”.
For the compound `O=CCc1ccccc1` [phenylacetaldehyde], in experiment [1], the “association with flavor intensity” value is “associated with flavor intensity in univariate models” and the “association with tomato flavor intensity” value is “not associated with tomato flavor intensity”. Besides, in experiment [5], the association with sweetness result is listed as “showed evidence for association with sweetness in univariate models”.
In the case of `CCCCCCCCC1CCC(=O)O1` (stereo not shown) [2305-05-7, 5-octyldihydro-2(3H)-furanone], in experiment [3], the “enhancement” value is “mutually independent of all three sugar”.
For `CCCCCCOC(C)=O` [142-92-7, hexyl acetate], in experiment [3], the “enhancement” value is “mutually independent of all three sugar”.
`C=CCc1ccc(O)c(OC)c1` [eugenol]: the association with sweetness entry in experiment [5] was “showed evidence for association with sweetness in univariate models”.
In the case of `C=CC(C)(O)CCC=C(C)C` (stereo not shown) [78-70-6], the “Parameter Estimates: Estimate” value in experiment [2] is recorded as 0.009457. Besides, in experiment [2] (strawberry, in words), the “relationship to strawberry flavor intensity / sensory perception” value is reported as “significant positive correlation with flavor intensity”. In experiment [3], the “FRUCTOSE t RATIO” value is reported as 0.872, the “GLUCOSE t RATIO” value amounted to 0.7 and the “SUCROSE t RATIO” value was −0.1. In addition, the “Parameter Estimates-fit” value in experiment [4] is 0.007729.
For `CC1C=CC2C(C1)C2(C)C` (stereo not shown) [4-carene], the association with sweetness result in experiment [5] is “showed evidence for association with sweetness in univariate models”.
As for `CCCCCCCCOC(=O)CC(C)C` [7786-58-5, octyl 3-methylbutanoate], the “enhancement” value in experiment [3] was “show evidence of enhancing perceived sweetness intensity independent of individual sugars”.
`CCC/C=C/C=O` [6728-26-3, (2E)-2-hexenal or trans-2-hexenal]: in experiment [2], the “Parameter Estimates: Estimate” value is 0.0003625. In addition, in experiment [3], the “FRUCTOSE t RATIO” value stood at 3.349, the “GLUCOSE t RATIO” value came out at 3.314 and the “SUCROSE t RATIO” value is given as −0.816. Further, the “Parameter Estimates-fit” value in experiment [4] is listed as 0.000185. Further, the t in experiment [5] is 0.051.
Turning to `CCCCCC(C)=O` [110-43-0], the “Parameter Estimates: Estimate” value in experiment [2] is given as 0.06351. In experiment [3], the “FRUCTOSE t RATIO” value turned out to be 1.054, the “GLUCOSE t RATIO” value is listed as 0.657 and the “SUCROSE t RATIO” value came out at 1.899. The “Parameter Estimates-fit” value in experiment [4] is on record as 0.07262.
Regarding `CC/C=C\CCO` [cis-3-hexen-1-ol], in experiment [1], the “association … for fructose” value was “independently significant after accounting for fructose” and the “association with flavor intensity” value was “associated with flavor intensity in univariate models”. Besides, in experiment [5], the association with sweetness entry is reported as “showed evidence for association with sweetness in univariate models”.
Turning to `CCCCCCC=O` [heptaldehyde], in experiment [5], the association with sweetness result is “showed evidence for association with sweetness in univariate models”.
Regarding `CCCCC/C=C/C=C/C=O` [trans,trans-2,4-decadienal], in experiment [1], the “association … for fructose” value is “independently significant after accounting for fructose” and the “association with flavor intensity” value is given as “associated with flavor intensity in univariate models”.
Consider `CCCCCCCC(=O)OCC` [106-32-1, ethyl octanoate], for which the “negatively related to sweetness: sugar(s) of which the effect is independent” value in experiment [3] (compounds negatively related to sweetness independent of at least one of the sugars) is on record as “exclusively independent of glucose”.
